In US9192601B2, “Methods for enhancing muscle performance and tone” (Salk Institute for Biological Studies, priority 2006, dated 2015):

Tested on: quadriceps muscle
Test: Microarray analysis of quadriceps (Affymetrix mouse genome 430A 2.0)
Format: in vivo
[1] = GW + Tr: GW1516 + exercise training, quadriceps
[2] = GW + Tr: GW1516 + exercise training, quadriceps, listed as GW
[3] = GW: GW1516 alone, sedentary, quadriceps, — = not regulated

SMILES: Cc1cc(SCc2sc(-c3ccc(C(F)(F)F)cc3)nc2C)ccc1OCC(=O)O [GW1516, (2-methyl-4(((4-methyl-2-(4-trifluoromethylphenyl)-1,3-thiazol-5-yl)methyl)sulfanyl)phenoxy)acetic acid]
- number of genes regulated in quadriceps (GW1516 treatment alone): 96 genes
- 1810073N04Rik expression [1]: 2.326
- 2310076L09Rik expression [1]: 1.868
- Abcb1a expression [1]: 10.322
- Acaa2 expression [1]: 1.926
- Acadl expression [1]: 2.549
- Acat2 expression [1]: 1.625
- Acly expression [1]: 2.606
- Acp5 expression [1]: 3.91
- Adfp (adipose differentiation related protein) expression [1]: 2.009
- Adipoq expression [1]: 3.082
- Adrb3 expression [1]: 3.83
- Aldh1a7 expression [1]: 3.862
- Angptl4 expression [1]: 5.495
- Aplp2 expression [1]: 1.937
- Arcn1 expression [1]: 1.617
- Asb15 expression [1]: 1.78
- Atf3 expression [1]: 1.802
- BC054059 expression [1]: 5.08
- Btg2 expression [1]: 1.601
- C530043G21Rik expression [1]: 1.5
- Car3 expression [1]: 2.339
- Cat expression [1]: 1.82
- Cd36 expression [1]: 1.584
- Cdo1 expression [1]: 3.266
- Cebpa expression [1]: 2.168
- Cfd expression [1]: 2.828
- Cidea expression [1]: 49.625
- Cidec expression [1]: 4.771
- Clcn5 expression [1]: 2.333
- Cldn5 expression [1]: 1.545
- Cpt1a expression [1]: 2.753
- Crybb1 expression [1]: 2.457
- Cyp2e1 expression [1]: 2.941
- D4Wsu53e expression [1]: 1.586
- Dbi expression [1]: 1.936
- Dgat2 expression [1]: 2.784
- Dnajb1 expression [1]: 3.59
- Dusp7 expression [1]: 1.661
- Dync1i2 expression [1]: 1.705
- Egr1 expression [1]: 2.577
- Fabp3 expression [1]: 1.833
- Fabp4 expression [1]: 2.189
- Fasn expression [1]: 6.323
- Fbp2 expression [1]: 2.808
- Fos expression [1]: 3.9
- Gpam expression [1]: 2.207
- Gpiap1 expression [1]: 1.83
- Hba-a1 expression [1]: 1.632
- Hbb-b2|Hbb-y expression [1]: 1.626
- Hip1r expression [1]: 1.75
- Hipk3 expression [1]: 1.694
- Hp expression [1]: 1.679
- Hsd17b12 expression [1]: 2.376
- Hsp90aa1 expression [1]: 1.513
- Hspa1b expression [1]: 8.845
- Hspa9a expression [1]: 1.61
- Ifi27 expression [1]: 1.714
- Igf2 expression [1]: 1.635
- Igfbp5 expression [1]: 1.772
- Il6st expression [1]: 1.972
- Junb expression [1]: 1.792
- Klf3 expression [1]: 1.901
- Ldhb expression [1]: 2.541
- Lig3 expression [1]: 2.693
- Lipe expression [1]: 3.032
- Lmx1a expression [1]: 4.106
- Lpl expression [1]: 1.659
- Mb expression [1]: 1.578
- Mgl1 / Mgll (monoglyceride lipase) expression [1]: 1.907
- Mgst1 expression [1]: 1.916
- Mlycd expression [1]: 1.781
- Mpv17l expression [1]: 1.988
- Mybph expression [1]: 1.578
- Myh2 expression [1]: 2.194
- Neurl expression [1]: 1.941
- Nle1 expression [1]: 1.831
- Nr1d2 expression [1]: 1.794
- Nr4a2 expression [1]: 1.776
- Pck1 expression [1]: 3.518
- Pdk4 expression [1]: 2.27
- Ppp2r1b expression [1]: 2.509
- Ptplb expression [1]: 2.38
- Rab5b expression [1]: 1.603
- Rbbp4 expression [1]: 2.865
- Rbp4 expression [1]: 2.065
- Retn expression [1]: 4.114
- Rpol-4 expression [1]: 2.498
- Rragd expression [1]: 2.101
- Rtbdn expression [1]: 2.32
- Scd1 expression [1]: 6.494
- Scd2 expression [1]: 1.849
- Serpina1a expression [1]: 0.396
- Serpinf1 expression [1]: 7.765
- Slc1a5 expression [1]: 1.939
- Slc25a20 expression [1]: 1.865
- Slc27a1 expression [1]: 3.58
- Sln expression [1]: 0.363
- Sod3 expression [1]: 1.606
- Surf4 expression [1]: 2.091
- Svs5 expression [1]: 0.095
- Tgfbr2 expression [1]: 2.13
- Thrsp expression [1]: 2.685
- Tkt expression [1]: 2.256
- Tpcn1 expression [1]: 2.842
- Trf expression [1]: 1.907
- Trim35 expression [1]: 1.856
- Ucp3 expression [1]: 2.943
- Wnt7b expression [1]: 4.449
- Ywhag expression [1]: 1.87
- Zfp261 expression [1]: 1.847
- erythroid differentiation regulator 1 expression [1]: 0.619
- Acly expression [2]: 2.458
- Cat expression [2]: 1.728
- Hsp90aa1 expression [2]: 1.455
- Slc25a20 expression [2]: 1.704
- Ankrd1 expression [3]: 4.235
- Cryab expression [3]: 1.561
- Crygf expression [3]: 1.801
- Dnaja4 expression [3]: 1.756
- Hspb1 expression [3]: 1.815
- Hspb7 expression [3]: 3.414
- Mt1 expression [3]: 2.364
- Mt2 expression [3]: 2.151
- Smad3 expression [3]: 1.841
- Tnfrsf12a expression [3]: 1.759
- number of genes regulated in quadriceps (combination of GW1516 and exercise): 130 genes
